Laboratory results published in ChEMBL document CHEMBL5096208, “Installation of Pargyline, a LSD1 Inhibitor, in the HDAC Inhibitory Template Culminated in the Identification of a Tractable Antiprostate Cancer Agent” (J Med Chem, 2021).
Active and inactive are the calls of the source. The calls are words filed in the database; no cut-off is given here.

Legend:
[1] = target: T1, Amine oxidase [flavin-containing] B (Homo sapiens, UniProt P27338); test: Inhibition of human full length recombinant MAO-B expressed in insect cells using kynuramine as substrate; type: cell-based
T1 sequence (P27338 whole entry): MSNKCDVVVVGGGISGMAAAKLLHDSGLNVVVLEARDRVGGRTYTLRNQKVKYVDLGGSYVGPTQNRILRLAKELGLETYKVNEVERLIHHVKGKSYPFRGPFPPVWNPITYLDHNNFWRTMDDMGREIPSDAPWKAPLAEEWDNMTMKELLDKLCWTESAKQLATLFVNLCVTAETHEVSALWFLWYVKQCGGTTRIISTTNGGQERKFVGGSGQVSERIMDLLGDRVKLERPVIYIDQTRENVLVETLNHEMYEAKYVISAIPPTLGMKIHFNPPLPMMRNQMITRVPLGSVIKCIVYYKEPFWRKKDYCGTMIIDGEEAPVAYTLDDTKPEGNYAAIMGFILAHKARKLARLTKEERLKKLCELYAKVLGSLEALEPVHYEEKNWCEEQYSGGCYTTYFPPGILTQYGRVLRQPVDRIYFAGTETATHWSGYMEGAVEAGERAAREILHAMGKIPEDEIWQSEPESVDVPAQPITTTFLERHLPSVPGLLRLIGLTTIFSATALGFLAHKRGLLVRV

[2] = Half life in Sprague-Dawley rat at 25 mg/kg, po administered once via gavage measured upto 24 hrs post dose by UPLC-MS/MS analysis; type: ADME, organism-based; details: in vivo
Homo sapiens [3] = species on record: Homo sapiens; test: Selectivity ratio of IC50 for human HDAC7 to IC50 for human HDAC6
PC-3 [4] = test: Antitumor activity against human PC-3 cells xenografted in athymic nude mouse assessed as tumor growth inhibition at 50 mg/kg, po qd measured upto 25 days by caliper method relative to control; type: functional; details: PC-3, 600 h, time <= 25 day, read-out: TGI
[5] = Cmax in Sprague-Dawley rat at 25 mg/kg, po formulated using SMEDDS administered once via gavage measured upto 24 hrs post dose by UPLC-MS/MS analysis; type: ADME, organism-based; design: dose 25 mg/kg, time < 24 hrs, route po; details: in vivo
PC-3 [6] = test: Downregulation of LSD1 in human PC-3 cells at 1.25 to 10 uM incubated for 48 hrs by Western blot analysis; type: functional, cell-based; details: dose 1.25-10 µM
[7] = Cmax in Sprague-Dawley rat at 25 mg/kg, po administered once via gavage measured upto 24 hrs post dose by UPLC-MS/MS analysis; type: ADME, organism-based; design: dose 25 mg/kg, time < 24 hrs, route po; details: in vivo
[8] = Oral bioavailability in Sprague-Dawley rat at 25 mg/kg administered once via gavage measured upto 24 hrs post dose by UPLC-MS/MS analysis; type: ADME, organism-based; details: in vivo
[9] = Metabolic stability in Sprague-Dawley rat hepatocyte assessed as parent compound remaining at 10 uM by LC-MS/MS analysis; type: ADME, cell-based; details: hepatocytes, read-out: Stability
Histone deacetylase 8 = target: T2, Histone deacetylase 8 (Homo sapiens, UniProt Q9BY41); test: Inhibition of human HDAC8 (379 to 382 residues) using RHKAcKAc as flurogenic substrate
T2 sequence (Q9BY41 whole entry): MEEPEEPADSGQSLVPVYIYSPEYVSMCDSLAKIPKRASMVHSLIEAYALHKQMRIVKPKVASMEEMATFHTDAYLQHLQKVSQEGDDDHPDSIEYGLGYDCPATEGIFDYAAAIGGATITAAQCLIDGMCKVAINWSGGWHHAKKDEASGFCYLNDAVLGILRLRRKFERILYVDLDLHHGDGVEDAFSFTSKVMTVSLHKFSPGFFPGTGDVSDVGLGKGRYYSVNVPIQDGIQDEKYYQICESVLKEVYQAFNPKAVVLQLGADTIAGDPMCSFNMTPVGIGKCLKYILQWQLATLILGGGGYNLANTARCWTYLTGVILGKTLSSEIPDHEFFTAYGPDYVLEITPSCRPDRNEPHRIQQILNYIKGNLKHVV

[10] = Metabolic stability in Beagle dog hepatocyte assessed as intrinsic clearance at 10 uM by LC-MS/MS analysis; type: ADME, cell-based, Canis lupus familiaris; details: hepatocytes, read-out: CLH
PC-3 [11] = test: Induction of apoptosis in human PC-3 cells at 1.25 to 10 uM incubated for 48 hrs by Western blot analysis; type: functional, cell-based; details: dose 1.25-10 µM
[12] = Metabolic stability in human hepatocyte assessed as parent compound remaining at 10 uM incubated for 120 mins by LC-MS/MS analysis; type: ADME, cell-based; details: hepatocytes, read-out: Stability
DU-145 [13] = test: Antiproliferative activity against human DU-145 cells assessed as cell growth inhibition incubated for 48 hrs by MTT assay; type: functional
PC-3 [14] = test: Upregulation of acetyl-tubulin in human PC-3 cells at 0.625 to 5 uM by Western blot analysis; type: functional, cell-based; details: dose 0.625-5 µM
[15] = target: T3, Amine oxidase [flavin-containing] A (Homo sapiens, UniProt P21397); test: Inhibition of human full length recombinant MAO-A expressed in insect cells using kynuramine as substrate
T3 sequence (P21397 whole entry): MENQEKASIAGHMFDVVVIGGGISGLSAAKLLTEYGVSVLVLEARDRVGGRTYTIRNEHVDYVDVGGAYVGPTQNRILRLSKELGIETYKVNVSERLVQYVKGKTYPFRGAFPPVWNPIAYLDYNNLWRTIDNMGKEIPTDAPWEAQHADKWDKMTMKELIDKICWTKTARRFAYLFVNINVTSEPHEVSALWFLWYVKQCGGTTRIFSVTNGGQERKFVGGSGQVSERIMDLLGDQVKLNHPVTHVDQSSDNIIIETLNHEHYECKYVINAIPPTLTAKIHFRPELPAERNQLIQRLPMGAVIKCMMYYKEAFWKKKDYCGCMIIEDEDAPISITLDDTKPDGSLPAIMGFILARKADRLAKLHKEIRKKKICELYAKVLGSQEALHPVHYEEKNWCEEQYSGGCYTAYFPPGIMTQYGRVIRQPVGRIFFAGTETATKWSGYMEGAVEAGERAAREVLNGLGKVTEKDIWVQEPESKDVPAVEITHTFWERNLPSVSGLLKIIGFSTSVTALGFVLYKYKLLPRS

DU-145 [16] = test: Upregulation of acetyl-histone H3 in human DU-145 cells at 0.625 to 5 uM by Western blot analysis; type: functional, cell-based; details: dose 0.625-5 µM
Homo sapiens [17] = species on record: Homo sapiens; test: Selectivity ratio of IC50 for human HDAC1 to IC50 for human HDAC6
[18] = Metabolic stability in Sprague-Dawley rat hepatocyte assessed as half life at 10 uM by LC-MS/MS analysis; type: ADME, cell-based; details: hepatocytes
[19] = Metabolic stability in Beagle dog hepatocyte assessed as half life at 10 uM by LC-MS/MS analysis; type: ADME, cell-based, Canis lupus familiaris; details: hepatocytes
PC-3 [20] = test: Induction of cell death in LSD1 knockdown human PC-3 cells assessed as activation of procaspase-3 at 1.25 to 10 uM by Western blot analysis; type: functional, cell-based; details: dose 1.25-10 µM
[21] = Metabolic stability in Beagle dog hepatocyte assessed as parent compound remaining at 10 uM incubated for 60 mins by LC-MS/MS analysis; type: ADME, cell-based, Canis lupus familiaris; details: hepatocytes, read-out: Stability
[22] = AUC (0 to infinity) in Sprague-Dawley rat at 25 mg/kg, po formulated using SMEDDS administered once via gavage measured upto 24 hrs post dose by UPLC-MS/MS analysis; type: ADME, organism-based; design: dose 25 mg/kg, time < 24 hrs, route po; details: in vivo
PC-3 [23] = test: Antiproliferative activity against human PC-3 cells assessed as cell growth inhibition at upto 10 uM incubated for 48 hrs by MTT assay; type: functional, cell-based

IC50 [1]: 67 µM
half-life [2]: 3.4 h
Ratio IC50 (Homo sapiens [3]): > 500
Cmax [5]: 257 ng/mL
Cmax [7]: 74.1 ng/mL
bioavailability [8]: 11.8%
remaining at 10 µM [9]: 100%
IC50 (Histone deacetylase 8): 0.21 µM
CLint scaled at 10 µM [10]: 21.6 mL/min/kg
remaining at 2 h, 10 µM [12]: 95.5%
GI50 (DU-145 [13]): 0.42 µM
IC50 [15]: 0.79 µM
Ratio IC50 (Homo sapiens [17]): 33.6
half-life at 10 µM [18]: 1.56 h
half-life at 10 µM [19]: 3.61 h
remaining at 1 h, 10 µM [21]: 81.2%
AUC(0-inf) [22]: 596 ng·h/mL
Compound: C#CCN(C)Cc1cccc(NC(=O)CCCCCCC(=O)NO)c1
inhibition in vivo at 50 mg/kg (PC-3 [4]): 36.9%
Activity (PC-3 [6]): Active
Activity (PC-3 [11]): Active
Activity (PC-3 [14]): Active
Activity (DU-145 [16]): Active
Activity (PC-3 [20]): Active
Activity (PC-3 [23]): Active
